Assays:
[1] = tested on: NMU-induced rat mammary carcinomas; assay: NMU-induced mammary tumor model in female rats, 4 weeks treatment; type: in vivo, female Sprague-Dawley rats; conditions: for Median tumor weight: 1 mg/kg p.o. daily for 4 weeks (combination 1 + 1 mg/kg), of 10 animals, control 15200, ovariectomy 0; for Tumor growth inhibition compared to control (procentual change of tumor area): 1 mg/kg p.o. each, 4 weeks, Kruskal-Wallis-test
Protocol: Tumors were induced by a single intravenous injection of NMU (50 mg/kg) in female Sprague-Dawley rats (Tierzucht Schönwalde, age 50-55 days). Rats with at least one established tumor with a size of minimal 150 mm^2 were treated for 4 weeks by
1) Solvent control, 2) Ovariectomy (at treatment start), 3) The progesterone receptor antagonist 11β-(4-acetylphenyl)-17β-hydroxy-17α(1,1,2,2,2-pentafluoroethyl)-estra-4,9-dien-3-one, 1 mg/kg p.o., 4) Tamoxifen, 1 mg/kg p.o., 5) The progesterone receptor antagonist 11β-(4-acetylphenyl)-17β-hydroxy-17α(1,1,2,2,2-pentafluoroethyl)-estra-4,9-dien-3-one, 1 mg/kg p.o. and Tamoxifen, 1 mg/kg p.o. daily.
As parameter for growth inhibition the procentual change of tumor area determined by weekly caliper measurements was used. For statistical analysis of intergroup differences of mean values the Kruskal-Wallis-test was used.

[2] = tested on: MCF-10 mammary cells with BRCA1 and BRCA2 knock down; assay: Growth of MCF-10 mammary cells with siRNA knock down of BRCA1 and BRCA2, stimulated with progesterone and/or estrogens; type: cell-based; conditions: co-treatment, in the presence of progesterone
Protocol: MCF-10 mammary cells obtained from ATCC were treated with siRNA knocking down the BRCA1 and BRCA2 gene.
(§1) Cell growth in comparison to untransfected and mock transfected cells was compared. In a second step cells were stimulated either with progesterone and/or with estrogens. […] The effects on progesterone receptor protein expression were further investigated.

progesterone receptor [3] = target: T1, progesterone receptor (Homo sapiens, UniProt P06401); assay: Progesterone receptor protein expression/stability after siRNA knock down of BRCA1; type: cell-based
T1 sequence (P06401 1-933): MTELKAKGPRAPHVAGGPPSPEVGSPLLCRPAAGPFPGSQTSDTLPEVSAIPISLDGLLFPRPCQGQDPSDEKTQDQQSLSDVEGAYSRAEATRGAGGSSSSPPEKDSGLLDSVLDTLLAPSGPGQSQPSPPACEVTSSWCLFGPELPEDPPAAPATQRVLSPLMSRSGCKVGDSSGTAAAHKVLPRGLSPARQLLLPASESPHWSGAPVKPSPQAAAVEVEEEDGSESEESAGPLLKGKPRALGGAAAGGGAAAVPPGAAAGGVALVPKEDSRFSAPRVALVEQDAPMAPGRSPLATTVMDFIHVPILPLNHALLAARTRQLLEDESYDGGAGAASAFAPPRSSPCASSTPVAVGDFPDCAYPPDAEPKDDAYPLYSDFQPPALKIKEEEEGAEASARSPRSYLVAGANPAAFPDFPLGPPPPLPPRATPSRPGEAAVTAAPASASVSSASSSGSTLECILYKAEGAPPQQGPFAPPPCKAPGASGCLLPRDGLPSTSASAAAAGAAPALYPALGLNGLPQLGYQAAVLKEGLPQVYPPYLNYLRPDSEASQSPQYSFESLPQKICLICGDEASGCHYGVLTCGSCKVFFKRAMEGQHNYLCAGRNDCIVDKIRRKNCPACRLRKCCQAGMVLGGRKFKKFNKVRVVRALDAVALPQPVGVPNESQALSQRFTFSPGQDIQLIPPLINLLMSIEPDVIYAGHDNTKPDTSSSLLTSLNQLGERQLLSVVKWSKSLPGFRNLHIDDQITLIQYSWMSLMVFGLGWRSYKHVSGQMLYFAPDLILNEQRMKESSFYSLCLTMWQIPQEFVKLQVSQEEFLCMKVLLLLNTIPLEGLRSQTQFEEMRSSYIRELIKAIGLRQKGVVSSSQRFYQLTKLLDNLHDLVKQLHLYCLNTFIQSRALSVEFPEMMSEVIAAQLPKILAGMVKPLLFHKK
Excerpt: as §1

progesterone receptor [4] = target: T1, progesterone receptor; conditions: Fuhrmann et al., J. Med. Chem. 2000; cited from earlier work
[5] = tested on: Brca1/p53-deficient mice mammary tumors; conditions: BRCA1- or BRCA2 inactivated in mammary glands; Poole et al., Science 2006; cited from earlier work

Increased stability of progesterone receptor after BRCA1 knock down (progesterone receptor [3])	SMILES	Median tumor weight [1] [mg]	Tumor growth inhibition compared to control (procentual change of tumor area) [1]	Growth/proliferation of BRCA1 knock down cells [2]	Antiprogestagenic activity (progesterone receptor [4])	Development of mammary tumors in mice [5]
–	CC/C(=C(\c1ccccc1)c1ccc(OCCN(C)C)cc1)c1ccccc1 [Tamoxifen, reference compound]	2950	not significant different to the untreated control group	–	–	–
could be antagonized	CC(=O)c1ccc([C@H]2C[C@@]3(C)[C@@H](CC[C@@]3(O)C(F)(F)C(F)(F)F)[C@@H]3CCC4=CC(=O)CCC4=C32)cc1 [11β-(4-acetylphenyl)-17β-hydroxy-17α-(1,1,2,2,2-pentafluoroethyl)-estra-4,9-dien-3-one]	1800	not significant different to the untreated control group	able to antagonize the effects of BRCA1 knock down	high antiprogestagenic activity	–
–	CC#C[C@]1(O)CC[C@H]2[C@@H]3CCC4=CC(=O)CCC4=C3[C@@H](c3ccc(N(C)C)cc3)C[C@@]21C [mifepristone]	–	–	–	–	blocks the development of mammary tumors
